# Reference: the kinase profiling compilation of Christmann-Franck et al. (2016)
# Legend:
# Assay in all cases: KINOMEscan competition binding
# Conditions in all cases: compound 1.0 µM
# MAPK13 (human) = MAPK13 (human) (UniProt O15264)
# ACVR1 (human) = ACVR1 (human) (UniProt Q04771)
# DDR1 (human) = DDR1 (human) (UniProt Q08345)
# ICK (human) = ICK (human) (UniProt Q9UPZ9)
# NEK7 (human) = NEK7 (human) (UniProt Q8TDX7)
# HIPK4 (human) = HIPK4 (human) (UniProt Q8NE63)
# NTRK2 (human) = NTRK2 (human) (UniProt Q16620)
# EPHA8 (human) = EPHA8 (human) (UniProt P29322)
# LCK (human) = LCK (human) (UniProt P06239)
# AURKA (human) = AURKA (human) (UniProt O14965)
# RIOK1 (human) = RIOK1 (human) (UniProt Q9BRS2)
# CDKL3 (human) = CDKL3 (human) (UniProt Q8IVW4)
# Chain of CDKL3 (human) (Q8IVW4 whole entry, looked up): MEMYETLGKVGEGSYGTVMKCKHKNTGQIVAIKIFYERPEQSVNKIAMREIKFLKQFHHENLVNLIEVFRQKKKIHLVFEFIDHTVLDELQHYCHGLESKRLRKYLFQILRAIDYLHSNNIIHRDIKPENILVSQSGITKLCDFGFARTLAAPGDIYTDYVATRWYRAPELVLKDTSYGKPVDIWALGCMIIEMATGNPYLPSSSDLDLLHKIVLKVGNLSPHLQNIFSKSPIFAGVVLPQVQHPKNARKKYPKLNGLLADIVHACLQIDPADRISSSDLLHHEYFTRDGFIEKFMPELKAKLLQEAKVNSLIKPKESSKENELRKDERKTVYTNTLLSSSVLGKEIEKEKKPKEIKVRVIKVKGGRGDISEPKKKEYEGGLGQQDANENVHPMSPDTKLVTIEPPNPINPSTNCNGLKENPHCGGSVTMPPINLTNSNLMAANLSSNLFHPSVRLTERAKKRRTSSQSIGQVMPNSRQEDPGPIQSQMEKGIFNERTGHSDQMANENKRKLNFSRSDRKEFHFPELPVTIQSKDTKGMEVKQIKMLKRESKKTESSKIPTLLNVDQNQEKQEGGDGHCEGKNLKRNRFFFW
# MAST1 (human) = MAST1 (human) (UniProt Q9Y2H9)
# ITK (human) = ITK (human) (UniProt Q08881)
# PIP5K1A (human) = PIP5K1A (human) (UniProt Q99755)
# Chain of PIP5K1A (human) (Q99755 whole entry, looked up): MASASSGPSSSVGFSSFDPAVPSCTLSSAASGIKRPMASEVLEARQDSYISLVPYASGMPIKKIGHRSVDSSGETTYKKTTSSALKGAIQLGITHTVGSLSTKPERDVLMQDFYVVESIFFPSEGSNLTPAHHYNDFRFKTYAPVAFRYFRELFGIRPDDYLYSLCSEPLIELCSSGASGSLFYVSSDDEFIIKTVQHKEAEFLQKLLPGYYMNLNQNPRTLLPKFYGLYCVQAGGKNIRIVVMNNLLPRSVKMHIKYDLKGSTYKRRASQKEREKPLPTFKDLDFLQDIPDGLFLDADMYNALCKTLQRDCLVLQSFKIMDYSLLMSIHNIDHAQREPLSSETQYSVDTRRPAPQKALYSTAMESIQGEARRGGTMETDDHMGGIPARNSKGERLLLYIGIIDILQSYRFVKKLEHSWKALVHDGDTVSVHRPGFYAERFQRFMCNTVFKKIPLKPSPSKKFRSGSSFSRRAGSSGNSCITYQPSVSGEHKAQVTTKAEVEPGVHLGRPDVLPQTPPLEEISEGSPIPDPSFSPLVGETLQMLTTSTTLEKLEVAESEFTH
# PRKAA1 (human) = PRKAA1 (human) (UniProt Q13131)
# Chain of PRKAA1 (human) (Q13131 whole entry, looked up): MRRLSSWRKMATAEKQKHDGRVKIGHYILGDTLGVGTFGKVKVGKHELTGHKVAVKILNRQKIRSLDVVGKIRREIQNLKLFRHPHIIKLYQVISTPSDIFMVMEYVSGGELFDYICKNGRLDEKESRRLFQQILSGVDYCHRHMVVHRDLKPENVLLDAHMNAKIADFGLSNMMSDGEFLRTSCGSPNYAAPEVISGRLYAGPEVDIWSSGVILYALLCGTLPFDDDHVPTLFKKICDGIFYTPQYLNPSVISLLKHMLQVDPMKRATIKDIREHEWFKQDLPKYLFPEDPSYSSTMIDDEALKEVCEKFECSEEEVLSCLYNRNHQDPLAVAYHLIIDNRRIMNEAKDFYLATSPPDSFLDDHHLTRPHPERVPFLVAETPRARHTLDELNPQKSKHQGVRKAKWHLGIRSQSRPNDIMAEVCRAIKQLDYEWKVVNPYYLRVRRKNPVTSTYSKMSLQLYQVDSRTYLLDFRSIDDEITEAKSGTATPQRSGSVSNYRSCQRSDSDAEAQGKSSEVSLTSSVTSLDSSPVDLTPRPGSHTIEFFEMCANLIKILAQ
# MET (human) = MET (human) (UniProt P08581)
# IKBKE (human) = IKBKE (human) (UniProt Q14164)
# EGFR (human) = EGFR (human) (UniProt P00533)
# AURKC (human) = AURKC (human) (UniProt Q9UQB9)
# LTK (human) = LTK (human) (UniProt P29376)
# FGFR2 (human) = FGFR2 (human) (UniProt P21802)
# ULK2 (human) = ULK2 (human) (UniProt Q8IYT8)
# Chain of ULK2 (human) (Q8IYT8 whole entry, looked up): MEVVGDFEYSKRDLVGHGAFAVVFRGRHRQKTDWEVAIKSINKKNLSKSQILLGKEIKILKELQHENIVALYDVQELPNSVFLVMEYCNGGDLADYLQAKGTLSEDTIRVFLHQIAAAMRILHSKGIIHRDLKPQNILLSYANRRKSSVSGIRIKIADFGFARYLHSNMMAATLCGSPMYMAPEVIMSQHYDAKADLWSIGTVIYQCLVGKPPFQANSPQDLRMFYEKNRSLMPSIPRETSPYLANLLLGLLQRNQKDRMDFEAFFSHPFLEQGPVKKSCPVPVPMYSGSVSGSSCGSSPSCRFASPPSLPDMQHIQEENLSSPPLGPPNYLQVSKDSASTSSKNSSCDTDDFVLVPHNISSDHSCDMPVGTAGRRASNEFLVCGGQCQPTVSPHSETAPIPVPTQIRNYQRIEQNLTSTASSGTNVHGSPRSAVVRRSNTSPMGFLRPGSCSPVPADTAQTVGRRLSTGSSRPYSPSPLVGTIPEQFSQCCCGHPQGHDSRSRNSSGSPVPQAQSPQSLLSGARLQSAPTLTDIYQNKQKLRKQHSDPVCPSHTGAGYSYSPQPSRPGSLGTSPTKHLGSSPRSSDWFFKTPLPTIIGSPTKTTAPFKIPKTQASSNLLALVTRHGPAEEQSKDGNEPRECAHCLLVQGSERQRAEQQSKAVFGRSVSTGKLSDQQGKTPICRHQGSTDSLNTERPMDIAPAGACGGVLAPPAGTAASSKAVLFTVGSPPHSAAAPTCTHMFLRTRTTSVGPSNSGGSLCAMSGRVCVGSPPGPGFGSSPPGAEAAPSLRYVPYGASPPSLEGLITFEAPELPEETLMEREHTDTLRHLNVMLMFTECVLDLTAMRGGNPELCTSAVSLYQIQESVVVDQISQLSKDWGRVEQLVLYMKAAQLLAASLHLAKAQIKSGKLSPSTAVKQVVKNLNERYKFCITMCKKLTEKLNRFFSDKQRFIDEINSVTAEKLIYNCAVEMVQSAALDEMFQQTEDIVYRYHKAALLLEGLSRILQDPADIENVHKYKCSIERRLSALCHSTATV
# SRPK1 (human) = SRPK1 (human) (UniProt Q96SB4)
# TBK1 (human) = TBK1 (human) (UniProt Q9UHD2)
# TEC (human) = TEC (human) (UniProt P42680)
# DAPK3 (human) = DAPK3 (human) (UniProt O43293)
# [1] = system: KIT (human), P10721 [V559D/V654A]
# Chain of KIT (human), P10721 [V559D/V654A] (P10721 whole entry V559D/V654A, looked up): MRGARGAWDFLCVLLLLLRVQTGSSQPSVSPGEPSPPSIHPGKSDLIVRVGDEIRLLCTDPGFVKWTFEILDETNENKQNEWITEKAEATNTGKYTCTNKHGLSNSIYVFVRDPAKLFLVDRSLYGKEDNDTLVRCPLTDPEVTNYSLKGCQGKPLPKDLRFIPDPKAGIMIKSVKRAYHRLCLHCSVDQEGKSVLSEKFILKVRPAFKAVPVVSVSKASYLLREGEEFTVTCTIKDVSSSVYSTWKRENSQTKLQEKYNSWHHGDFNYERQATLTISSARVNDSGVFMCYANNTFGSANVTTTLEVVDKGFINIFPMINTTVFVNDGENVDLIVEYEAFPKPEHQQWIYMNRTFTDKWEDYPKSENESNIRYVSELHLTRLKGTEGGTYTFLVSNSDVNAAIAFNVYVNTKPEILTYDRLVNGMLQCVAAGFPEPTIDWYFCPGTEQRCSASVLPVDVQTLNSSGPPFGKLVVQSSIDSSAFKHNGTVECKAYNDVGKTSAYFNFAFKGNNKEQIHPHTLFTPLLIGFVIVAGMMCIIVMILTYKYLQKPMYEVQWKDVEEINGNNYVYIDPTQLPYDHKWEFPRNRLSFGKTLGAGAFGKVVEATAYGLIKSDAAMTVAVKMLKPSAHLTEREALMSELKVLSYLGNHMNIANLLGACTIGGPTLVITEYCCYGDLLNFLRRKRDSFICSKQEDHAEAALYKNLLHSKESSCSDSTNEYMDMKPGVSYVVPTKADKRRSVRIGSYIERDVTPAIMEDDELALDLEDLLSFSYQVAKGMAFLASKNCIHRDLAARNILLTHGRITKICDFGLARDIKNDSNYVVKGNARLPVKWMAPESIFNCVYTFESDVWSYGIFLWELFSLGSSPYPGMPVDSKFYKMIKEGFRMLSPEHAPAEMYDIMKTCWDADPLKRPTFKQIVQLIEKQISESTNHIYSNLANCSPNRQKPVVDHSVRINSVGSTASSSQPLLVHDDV
# SIK1 (human) = SIK1 (human) (UniProt P57059)
# MAPK8 (human) = MAPK8 (human) (UniProt P45983)
# STK17A (human) = STK17A (human) (UniProt Q9UEE5)
# CDC42BPG (human) = CDC42BPG (human) (UniProt Q6DT37)
# PIK3C2B (human) = PIK3C2B (human) (UniProt O00750)
# [2] = system: MET (human), P08581 [M1250T]
# EPHA2 (human) = EPHA2 (human) (UniProt P29317)
# BMX (human) = BMX (human) (UniProt P51813)
# STK33 (human) = STK33 (human) (UniProt Q9BYT3)
# STK24 (human) = STK24 (human) (UniProt Q9Y6E0)
# MAPK3 (human) = MAPK3 (human) (UniProt P27361)
# Chain of MAPK3 (human) (P27361 whole entry, looked up): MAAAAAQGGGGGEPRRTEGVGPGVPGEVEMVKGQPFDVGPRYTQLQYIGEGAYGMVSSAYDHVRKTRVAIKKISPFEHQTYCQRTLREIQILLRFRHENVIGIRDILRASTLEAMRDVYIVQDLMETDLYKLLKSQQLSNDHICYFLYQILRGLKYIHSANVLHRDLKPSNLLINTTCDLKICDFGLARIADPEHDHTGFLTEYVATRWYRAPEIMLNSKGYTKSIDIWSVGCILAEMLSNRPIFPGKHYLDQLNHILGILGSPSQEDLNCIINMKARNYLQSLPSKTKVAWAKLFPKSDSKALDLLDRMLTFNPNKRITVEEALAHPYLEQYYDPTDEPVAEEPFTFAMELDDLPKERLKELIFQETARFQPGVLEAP
# BMPR1A (human) = BMPR1A (human) (UniProt P36894)
# INSRR (human) = INSRR (human) (UniProt P14616)
# [3] = system: FLT3 (human), P36888 [D835Y]
# NTRK1 (human) = NTRK1 (human) (UniProt P04629)
# Chain of DDR1 (human) (Q08345 whole entry, looked up): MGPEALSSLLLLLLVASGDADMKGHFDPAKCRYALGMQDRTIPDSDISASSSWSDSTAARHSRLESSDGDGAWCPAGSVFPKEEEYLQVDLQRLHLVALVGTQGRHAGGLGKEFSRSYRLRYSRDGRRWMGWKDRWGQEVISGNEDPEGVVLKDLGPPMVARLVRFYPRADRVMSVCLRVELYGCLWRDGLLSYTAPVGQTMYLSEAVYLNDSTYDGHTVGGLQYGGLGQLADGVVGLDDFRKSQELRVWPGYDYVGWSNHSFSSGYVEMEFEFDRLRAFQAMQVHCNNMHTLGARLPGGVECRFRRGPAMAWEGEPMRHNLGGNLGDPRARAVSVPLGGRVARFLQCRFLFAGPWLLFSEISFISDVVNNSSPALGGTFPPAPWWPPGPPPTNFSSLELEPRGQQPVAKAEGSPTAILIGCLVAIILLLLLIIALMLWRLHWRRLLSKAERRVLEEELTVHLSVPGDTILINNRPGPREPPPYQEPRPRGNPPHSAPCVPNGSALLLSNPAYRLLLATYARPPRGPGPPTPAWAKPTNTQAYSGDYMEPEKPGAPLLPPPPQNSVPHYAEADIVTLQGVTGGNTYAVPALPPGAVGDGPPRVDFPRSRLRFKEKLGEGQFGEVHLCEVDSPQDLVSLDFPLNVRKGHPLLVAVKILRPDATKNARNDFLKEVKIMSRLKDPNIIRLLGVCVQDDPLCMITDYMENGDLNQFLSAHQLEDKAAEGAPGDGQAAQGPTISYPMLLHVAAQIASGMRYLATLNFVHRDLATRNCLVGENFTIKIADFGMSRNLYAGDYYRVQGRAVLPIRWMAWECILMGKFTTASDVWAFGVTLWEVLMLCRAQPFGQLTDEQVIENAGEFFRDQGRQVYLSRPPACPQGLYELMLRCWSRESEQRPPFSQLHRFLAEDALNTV
smiles,measurement,setting,value
COCCNCCCn1c(C(=O)CF)c(-c2ccc(C)cc2)c2c(N)ncnc21,"kinase still bound, per cent of control",MAPK13 (human),89%
same,"kinase still bound, per cent of control",ACVR1 (human),100%
same,"kinase still bound, per cent of control",DDR1 (human),100%
same,"kinase still bound, per cent of control",ICK (human),100%
same,"kinase still bound, per cent of control",NEK7 (human),100%
same,"kinase still bound, per cent of control",HIPK4 (human),95%
same,"kinase still bound, per cent of control",NTRK2 (human),74%
same,"kinase still bound, per cent of control",EPHA8 (human),75%
same,"kinase still bound, per cent of control",LCK (human),65%
same,"kinase still bound, per cent of control",AURKA (human),92%
same,"kinase still bound, per cent of control",RIOK1 (human),69%
same,"kinase still bound, per cent of control",CDKL3 (human),88%
same,"kinase still bound, per cent of control",MAST1 (human),83%
same,"kinase still bound, per cent of control",ITK (human),100%
same,"kinase still bound, per cent of control",PIP5K1A (human),100%
same,"kinase still bound, per cent of control",PRKAA1 (human),100%
same,"kinase still bound, per cent of control",MET (human),97%
same,"kinase still bound, per cent of control",IKBKE (human),100%
same,"kinase still bound, per cent of control",EGFR (human),96%
same,"kinase still bound, per cent of control",AURKC (human),89%
same,"kinase still bound, per cent of control",LTK (human),100%
same,"kinase still bound, per cent of control",FGFR2 (human),100%
same,"kinase still bound, per cent of control",ULK2 (human),90%
same,"kinase still bound, per cent of control",SRPK1 (human),100%
same,"kinase still bound, per cent of control",TBK1 (human),100%
same,"kinase still bound, per cent of control",TEC (human),100%
same,"kinase still bound, per cent of control",DAPK3 (human),97%
same,"kinase still bound, per cent of control",[1],94%
same,"kinase still bound, per cent of control",SIK1 (human),98%
same,"kinase still bound, per cent of control",MAPK8 (human),96%
same,"kinase still bound, per cent of control",STK17A (human),98%
same,"kinase still bound, per cent of control",CDC42BPG (human),84%
same,"kinase still bound, per cent of control",PIK3C2B (human),100%
same,"kinase still bound, per cent of control",[2],95%
same,"kinase still bound, per cent of control",EPHA2 (human),100%
same,"kinase still bound, per cent of control",BMX (human),98%
same,"kinase still bound, per cent of control",STK33 (human),100%
same,"kinase still bound, per cent of control",STK24 (human),78%
same,"kinase still bound, per cent of control",MAPK3 (human),98%
same,"kinase still bound, per cent of control",BMPR1A (human),100%
same,"kinase still bound, per cent of control",INSRR (human),100%
same,"kinase still bound, per cent of control",[3],100%
same,"kinase still bound, per cent of control",NTRK1 (human),82%
